# In US4820716A, “7-(1-Pyrrolidinyl)-quinolonecarboxylic acid derivatives” (Bayer Aktiengesellschaft, priority 1986, dated 1989):
# Where two headings read alike, the source gives them in different places.
# Key:
# Experiment in all cases: MIC, agar dilution test (multipoint inoculator)
# Format in all cases: cell-based
# [1] = tested on: Proteus morg.; conditions: Isosensitest medium pH 7.2
# From the text: (§1) *Agar dilution test (multipoint inoculator) Isosensitest medium pH 7.2
# [2] = tested on: Staph. aureus; conditions: Staphylococcus aureus, Isosensitest medium pH 7.2
# From the text: as §1
# [3] = tested on: Psdm. aeruginosa; conditions: Pseudomonas aeruginosa, Isosensitest medium pH 7.2
# From the text: as §1
# [4] = tested on: Providencia stuartei
# From the text: as §1
# [5] = tested on: E. coli; conditions: Escherichia coli, Isosensitest medium pH 7.2
# From the text: as §1
# [6] = tested on: Proteus mir.; conditions: Isosensitest medium pH 7.2
# From the text: as §1
# [7] = tested on: Serratia marc.; conditions: strain 16040, Isosensitest medium pH 7.2
# From the text: as §1
# [8] = tested on: Klebsiella pneum.
# From the text: as §1
# [9] = tested on: Proteus vulg.
# From the text: as §1
# [10] = tested on: Strepto. faecalis; conditions: Isosensitest medium pH 7.2
# From the text: as §1
# [11] = pH 7.2, strain 12012, Isosensitest medium pH 7.2
# [12] = pH 7.2, strain 12052, Isosensitest medium pH 7.2
# [13] = pH 7.2, strain 455/7, read-out: MIC
# [14] = pH 7.2, strain Neumann, read-out: MIC
# [15] = pH 7.2, strain 8175, read-out: MIC
# [16] = pH 7.2, strain 8223, read-out: MIC
# [17] = pH 7.2, strain 57USA, Isosensitest medium pH 7.2, read-out: MIC
# [18] = pH 7.2, strain 63, Isosensitest medium pH 7.2, read-out: MIC
# [19] = pH 7.2, strain 6179, Isosensitest medium pH 7.2, read-out: MIC
# [20] = pH 7.2, strain 6318, Isosensitest medium pH 7.2, read-out: MIC
# [21] = pH 7.2, strain 8085, Isosensitest medium pH 7.2, read-out: MIC
# [22] = strain 1017, Isosensitest medium pH 7.2, read-out: MIC
smiles,measurement,setting,value
"O=C(O)c1cn(C2CC2)c2cc(N3CCNCC3)c(F)cc2c1=O [Ciprofloxacin, 1-cyclopropyl-6-fluoro-1,4-dihydro-4-oxo-7-(1-piperazinyl)-3-quinolinecarboxylic acid, reference compound]",MIC,"[1]; pH 7.2, strain 932",< 0.015 µg/mL
same,MIC,"[1]; pH 7.2, strain 11006",≤ 0.015 µg/mL
same,MIC,"[2]; pH 7.2, strain 133",0.25 µg/mL
same,MIC,"[2]; pH 7.2, strain 1756",0.25 µg/mL
same,MIC,"[2]; pH 7.2, strain FK422",0.5 µg/mL
same,MIC,"[3]; pH 7.2, strain Ellsworth",0.06 µg/mL
same,MIC,"[3]; pH 7.2, strain Walter",0.5 µg/mL
same,MIC,[4]; [11],≤ 0.015 µg/mL
same,MIC,[4]; [12],16 µg/mL
same,MIC,[5]; [13],1 µg/mL
same,MIC,"[5]; pH 7.2, strain 4418, read-out: MIC",≤ 0.015 µg/mL
same,MIC,"[5]; pH 7.2, strain A261, read-out: MIC",≤ 0.015 µg/mL
same,MIC,[5]; [14],≤ 0.015 µg/mL
same,MIC,"[5]; pH 7.2, strain T7, read-out: MIC",≤ 0.015 µg/mL
same,MIC,"[6]; pH 7.2, strain 8175",0.06 µg/mL
same,MIC,"[6]; pH 7.2, strain 8223",4 µg/mL
same,MIC,[7],8 µg/mL
same,MIC,"[8]; pH 7.2, strain 57USA, Isosensitest medium pH 7.2",≤ 0.015 µg/mL
same,MIC,"[8]; pH 7.2, strain 63, Isosensitest medium pH 7.2",0.03 µg/mL
same,MIC,"[8]; pH 7.2, strain 6318, Isosensitest medium pH 7.2",0.06 µg/mL
same,MIC,"[8]; pH 7.2, strain 8085, Isosensitest medium pH 7.2",≤ 0.015 µg/mL
same,MIC,[9]; pH 7.2,≤ 0.015 µg/mL
same,MIC,"[10]; pH 7.2, strain 9790",0.5 µg/mL
same,MIC,"[10]; pH 7.2, strain 27101",0.25 µg/mL
"O=C(O)c1cn(C2CC2)c2c(Cl)c(N3CCC(O)C3)c(F)cc2c1=O (centres unmarked) [Example 3, 8-chloro-1-cyclopropyl-7-fluoro-1,4-dihydro-7-(3-hydroxy-1-pyrrolidinyl)-4-oxo-3-quinolinecarboxylic acid]",MIC,"[1]; strain 932, read-out: MIC",≤ 0.015 µg/mL
same,MIC,[1]; strain 11006,≤ 0.015 µg/mL
same,MIC,"[2]; pH 7.2, strain 133",≤ 0.015 µg/mL
same,MIC,"[2]; pH 7.2, strain 1756",≤ 0.015 µg/mL
same,MIC,"[2]; pH 7.2, strain FK422",≤ 0.015 µg/mL
same,MIC,"[3]; pH 7.2, strain Ellsworth",≤ 0.015 µg/mL
same,MIC,"[3]; pH 7.2, strain Walter",0.25 µg/mL
same,MIC,[4]; [11],≤ 0.015 µg/mL
same,MIC,[4]; [12],1 µg/mL
same,MIC,[5]; [13],0.25 µg/mL
same,MIC,"[5]; pH 7.2, strain 4418",≤ 0.015 µg/mL
same,MIC,"[5]; pH 7.2, strain A261",≤ 0.015 µg/mL
same,MIC,[5]; [14],≤ 0.015 µg/mL
same,MIC,"[5]; pH 7.2, strain T7",≤ 0.015 µg/mL
same,MIC,[6]; [15],≤ 0.015 µg/mL
same,MIC,[6]; [16],0.06 µg/mL
same,MIC,[7],1 µg/mL
same,MIC,[8]; [17],≤ 0.015 µg/mL
same,MIC,[8]; [18],≤ 0.015 µg/mL
same,MIC,[8]; [19],< 0.015 µg/mL
same,MIC,[8]; [20],≤ 0.015 µg/mL
same,MIC,[8]; [21],≤ 0.015 µg/mL
same,MIC,[9]; [22],≤ 0.015 µg/mL
same,MIC,"[10]; pH 7.2, strain 9790",≤ 0.015 µg/mL
same,MIC,"[10]; pH 7.2, strain 27101",≤ 0.015 µg/mL
"O=C(O)c1cn(C2CC2)c2cc(N3CCC(O)C3)c(F)cc2c1=O (racemic) [Example 1, 1-cyclopropyl-6-fluoro-1,4-dihydro-7-(3-hydroxy-1-pyrrolidinyl)-4-oxo-3-quinolinecarboxylic acid]",MIC,"[1]; strain 932, read-out: MIC",≤ 0.015 µg/mL
same,MIC,[1]; strain 11006,≤ 0.015 µg/mL
same,MIC,"[2]; pH 7.2, strain 133",≤ 0.015 µg/mL
same,MIC,"[2]; pH 7.2, strain 1756",≤ 0.015 µg/mL
same,MIC,"[2]; pH 7.2, strain FK422",≤ 0.015 µg/mL
same,MIC,"[3]; pH 7.2, strain Ellsworth",0.125 µg/mL
same,MIC,"[3]; pH 7.2, strain Walter",1 µg/mL
same,MIC,[4]; [11],≤ 0.015 µg/mL
same,MIC,[4]; [12],32 µg/mL
same,MIC,[5]; [13],32 µg/mL
same,MIC,"[5]; pH 7.2, strain 4418",< 0.015 µg/mL
same,MIC,"[5]; pH 7.2, strain A261",< 0.015 µg/mL
same,MIC,[5]; [14],≤ 0.015 µg/mL
same,MIC,"[5]; pH 7.2, strain T7",< 0.015 µg/mL
same,MIC,[6]; [15],0.06 µg/mL
same,MIC,[6]; [16],2 µg/mL
same,MIC,[7],32 µg/mL
same,MIC,[8]; [17],0.125 µg/mL
same,MIC,[8]; [18],< 0.015 µg/mL
same,MIC,[8]; [19],0.125 µg/mL
same,MIC,[8]; [20],0.06 µg/mL
same,MIC,[8]; [21],≤ 0.015 µg/mL
same,MIC,[9]; [22],≤ 0.015 µg/mL
same,MIC,"[10]; pH 7.2, strain 9790",0.125 µg/mL
same,MIC,"[10]; pH 7.2, strain 27101",0.125 µg/mL
